Data published in PMC12518996 (Frontiers in Pharmacology, 2025).

Experiments:
[1] = system: rat liver microsomes; test: Metabolic profiling in rat liver microsomes; type: in vitro ADME; settings: trazodone 8 μM, 40 min incubation
Method: (§1) The metabolic profile of trazodone was determined using in vitro incubations with rat and human liver microsomes, hepatocytes, and rat plasma samples. […] Microsomal incubations were conducted with pooled human and rat liver microsomes (Celsis IVT) using 0.6 mg/mL microsomal protein in 0.1 M phosphate buffer (pH 7.4). NADPH (1 mM) was added as a cofactor to initiate phase I metabolic reactions. Reactions were performed at 37 °C for 40 min with gentle shaking.
(§2) Processed supernatants (4 µL) were injected onto a Thermo U3000 UHPLC system coupled to a Thermo Q-Exactive Orbitrap MS equipped with a PDA detector. […] The Orbitrap operated in positive ESI mode (sheath/aux/sweep N2 55/8/4 units; capillary 3.0 kV, 370 °C; auxiliary heater 550 °C) with full-scan m/z 100–1,000 at 35,000 FWHM (m/z 200) and DDI-MS/MS at 17,500 FWHM (7 Hz acquisition; IT […]; HCD 40 eV). External mass calibration and a 5 ppm extraction window were applied, and data were processed in Xcalibur 3.0.63/Compound Discoverer 1.0.

[2] = system: rat hepatocytes; test: Metabolic profiling in rat hepatocytes; type: in vitro ADME; settings: trazodone 8 μM, 120 min incubation
Method: (§3) For hepatocyte incubations, pooled cryopreserved human hepatocytes (20-donor mix, Celsis) and male Sprague-Dawley rat hepatocytes (12-donor mix, Bioreclamation IVT) were used. Each incubation contained 1 million viable cells/mL in Celsis InVitro HI medium, at a pH of 7.4, and was conducted at 37 °C for 120 min under gentle agitation to facilitate metabolic activity.
as §2

[3] = target: T1, MAOB (Homo sapiens, UniProt P27338); test: Metabolite formation by recombinant human MAOB; type: in vitro ADME; settings: trazodone 4 μM; 37 °C, 40 min
T1 sequence (P27338 1-520): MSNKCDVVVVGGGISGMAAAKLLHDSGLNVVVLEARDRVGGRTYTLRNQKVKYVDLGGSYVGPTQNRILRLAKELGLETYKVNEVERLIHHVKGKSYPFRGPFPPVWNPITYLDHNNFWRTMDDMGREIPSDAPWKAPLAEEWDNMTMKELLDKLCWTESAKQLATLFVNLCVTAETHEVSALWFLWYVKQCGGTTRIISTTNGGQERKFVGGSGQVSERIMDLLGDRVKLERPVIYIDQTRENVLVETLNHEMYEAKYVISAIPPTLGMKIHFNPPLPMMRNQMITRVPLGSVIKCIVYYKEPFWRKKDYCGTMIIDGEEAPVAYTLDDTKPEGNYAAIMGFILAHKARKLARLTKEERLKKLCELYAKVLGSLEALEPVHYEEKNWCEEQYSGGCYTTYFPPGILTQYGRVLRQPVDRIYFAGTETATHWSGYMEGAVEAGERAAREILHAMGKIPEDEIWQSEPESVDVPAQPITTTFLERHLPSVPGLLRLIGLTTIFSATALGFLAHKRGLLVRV

[4] = system: human liver microsomes; test: Metabolic profiling in human liver microsomes; type: in vitro ADME; settings: trazodone 8 μM, 40 min incubation
Method: as §1, §2

[5] = system: human hepatocytes; test: Metabolic profiling in human hepatocytes; type: in vitro ADME; settings: trazodone 8 μM, 120 min incubation
Method: as §3, §2

[6] = target: T2, CYP1A2 (Mus musculus, UniProt P00186); test: Inhibition of CYP1A2 in CD1 mouse hepatocytes (phenacetin probe)
T2 sequence (P00186 1-513): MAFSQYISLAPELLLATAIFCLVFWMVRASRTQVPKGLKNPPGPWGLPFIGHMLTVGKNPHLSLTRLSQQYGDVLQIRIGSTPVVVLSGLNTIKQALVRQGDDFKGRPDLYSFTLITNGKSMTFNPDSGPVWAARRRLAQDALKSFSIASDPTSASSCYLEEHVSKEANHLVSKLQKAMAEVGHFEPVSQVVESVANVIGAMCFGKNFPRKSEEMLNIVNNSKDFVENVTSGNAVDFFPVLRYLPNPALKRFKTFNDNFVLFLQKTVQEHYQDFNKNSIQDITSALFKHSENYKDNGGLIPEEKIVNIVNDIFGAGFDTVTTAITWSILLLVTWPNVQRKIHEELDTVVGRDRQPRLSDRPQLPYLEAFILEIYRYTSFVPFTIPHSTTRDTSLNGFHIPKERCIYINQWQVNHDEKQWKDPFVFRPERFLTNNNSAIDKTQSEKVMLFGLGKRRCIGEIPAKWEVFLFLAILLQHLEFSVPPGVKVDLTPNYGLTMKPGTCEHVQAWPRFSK

[7] = target: CYP1A2 (Rattus norvegicus, UniProt P04799); test: Metabolite formation by recombinant rat CYP1A2; type: in vitro ADME; settings: trazodone 4 μM; NADPH; 37 °C, 40 min
Method: (§4) To confirm the role of individual CYP isoforms in metabolizing trazodone, recombinant human and rat CYP enzymes were employed in separate incubations. […] Each reaction was terminated with acetonitrile, centrifuged, and the supernatant was analyzed by identical UHPLC-Orbitrap setup outlined in §2.2, allowing direct comparison of metabolite spectra across all in-vitro systems. […] This procedure helped confirm the contributions of individual isoforms to specific biotransformation reactions.

[8] = target: T3, CYP1A2 (Homo sapiens, UniProt P05177); settings: human hepatocytes; probe phenacetin; 0.1-100 μM
T3 sequence (P05177 1-516): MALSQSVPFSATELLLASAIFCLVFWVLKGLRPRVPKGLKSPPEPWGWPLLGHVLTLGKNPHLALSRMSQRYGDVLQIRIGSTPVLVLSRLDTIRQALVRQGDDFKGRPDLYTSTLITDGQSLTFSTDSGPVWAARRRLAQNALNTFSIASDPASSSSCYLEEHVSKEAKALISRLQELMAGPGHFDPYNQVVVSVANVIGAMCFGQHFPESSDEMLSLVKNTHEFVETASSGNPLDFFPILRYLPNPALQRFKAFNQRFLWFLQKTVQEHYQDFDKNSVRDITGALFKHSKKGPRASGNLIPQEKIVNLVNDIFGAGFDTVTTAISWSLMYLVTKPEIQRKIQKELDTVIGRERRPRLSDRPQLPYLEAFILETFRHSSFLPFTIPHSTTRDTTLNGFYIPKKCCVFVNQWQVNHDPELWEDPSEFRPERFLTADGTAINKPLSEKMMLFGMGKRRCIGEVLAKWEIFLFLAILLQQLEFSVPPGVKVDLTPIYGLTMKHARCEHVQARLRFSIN

[9] = target: T3, CYP1A2; test: Metabolite formation by recombinant human CYP1A2; type: in vitro ADME; settings: trazodone 4 μM; NADPH; 37 °C, 40 min
Method: as §4

[10] = Metabolic profiling in rat plasma after oral trazodone; type: in vivo
Method: Following incubation, all reactions were terminated by adding an equal volume of cold acetonitrile to precipitate proteins. Samples were then centrifuged at 13,000 x g for 10 min, and the supernatants were transferred to 96-well plates for analysis.
as §2

CYP1A2 (Rattus norvegicus, UniProt P04799), sequence (P04799 whole entry, canonical isoform): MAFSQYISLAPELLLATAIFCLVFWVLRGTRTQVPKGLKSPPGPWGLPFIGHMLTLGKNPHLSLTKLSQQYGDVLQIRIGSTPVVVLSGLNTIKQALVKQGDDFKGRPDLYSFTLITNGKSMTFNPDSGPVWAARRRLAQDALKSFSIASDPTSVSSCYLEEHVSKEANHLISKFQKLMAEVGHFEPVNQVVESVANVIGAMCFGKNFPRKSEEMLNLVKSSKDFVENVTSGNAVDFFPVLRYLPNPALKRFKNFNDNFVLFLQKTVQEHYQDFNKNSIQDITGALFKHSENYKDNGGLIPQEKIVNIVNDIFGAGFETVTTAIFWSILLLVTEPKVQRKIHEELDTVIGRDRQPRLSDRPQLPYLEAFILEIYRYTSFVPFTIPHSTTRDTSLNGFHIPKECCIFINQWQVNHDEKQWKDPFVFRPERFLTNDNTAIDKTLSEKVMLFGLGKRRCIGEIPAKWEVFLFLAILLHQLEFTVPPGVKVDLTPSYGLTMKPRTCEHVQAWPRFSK

| Structure (SMILES) | relative abundance (% of total LC-MS signal), Liver microsomes Rat (%) [1] [%] | relative abundance (% of total LC-MS signal), Hepatocytes Rat (%) [2] [%] | Formation of trazodone phase I metabolite by recombinant human MAOB (as LC/MS peak areas) [3] | relative abundance (% of total LC-MS signal), Liver microsomes Human (%) [4] [%] | relative abundance (% of total LC-MS signal), Hepatocytes Human (%) [5] [%] | IC50 [6] [µM] | Formation of trazodone phase I metabolite by recombinant rat CYP1A2 (as LC/MS peak areas) [7] | IC50 value (µM), CYP1A2 [8] | Formation of trazodone phase I metabolite by recombinant human CYP1A2 (as LC/MS peak areas) [9] | relative abundance (% of total LC-MS signal), Rat plasma 0.25h (%) ([10]; rat plasma 0.25 h after oral trazodone 30 mg/kg) | relative abundance (% of total LC-MS signal), Rat plasma 6h (%) ([10]; rat plasma 6 h after oral trazodone 30 mg/kg) |
| --- | --- | --- | --- | --- | --- | --- | --- | --- | --- | --- | --- |
| O=c1n(CCCO)nc2ccccn12 [Metabolite M20] | 1.4 | 0.9 | 0 | 2.9 | 0.9 |  |  |  |  |  |  |
| Clc1cccc(N2CCNCC2)c1 [mCPP, m-chlorophenylpiperazine] |  |  | 20 |  |  | > 100 | 2151 | inactive | 266 |  |  |
| O=c1n(CCCN2CCNCC2)nc2ccccn12 [Metabolite M15] | 0.8 | 0.7 | 0 | 0.3 | 0.2 |  |  |  |  | 0.1 | 0.1 |
